From US11964941B2, “5-Bromo-indirubins” (City of Hope, priority 2014, dated 2024) come the findings set out here.

One test has as its system KCL22 CML cells. Briefly: MTS cell viability, KCL22 CML cells. The format is cell-based, human. As to conditions: Homo sapiens, KCL-22, 48 h, read-out: IC50 for 50% inhibition of viability. The procedure: (§1) MTS assays were performed for cell viability. Human cancer cells were seeded in 96-well plates (2500 cells/well for solid tumors, 5000 cells/well for blood tumors), incubated overnight at 37 C in 5% CO2, and exposed to 5IN-1NH1 or 5IN-1NH1s in a dose-dependent manner for 48 h. See FIGS. 1A-1B, 2A-2B, 3, 4A-4B, and 6A-6B. Dimethyl sulfoxide (DMSO) was used as the vehicle control. Viable cell numbers were determined by tetrazolium conversion to its formazan dye and absorbance was measured at 490 nm using an automated ELISA plate reader. Each experiment was performed in quadruplicate. IC50 values were determined using CalcuSyn software (BIOSOFT®, Cambridge GB).

In test [1] the test system is SKOV3 ovarian cancer cells. Briefly: MTS cell viability, SKOV3 ovarian cancer cells. The format is cell-based, human. Conditions: Homo sapiens, SK-OV-3, 48 h, read-out: IC50 for 50% inhibition of viability. The protocol:
as §1

The subject of test [2] is MDA-MB-231 breast cancer cells. Description: MTS cell viability, MDA-MB-231 breast cancer cells. Type of test: cell-based, human. As to conditions: Homo sapiens, 48 h, read-out: IC50 for 50% inhibition of viability. The protocol: as §1
For test [3], the system named is T315I ABL1 mutant KCL22 CML cells. Description: MTS cell viability, T315I ABL1 mutant KCL22 CML cells. The format is cell-based, human. The protocol:
as §1
Human DU145 prostate cancer, A2058 melanoma, SKOV3 ovarian cancer and T315I ABL1 mutant KCL22 CML cells were seeded in 96-well plates (2500 cells/well for solid tumors, 5000 cells/well for blood tumors), incubated overnight at 37° C. in 5% CO2, and exposed to 5IN-6NC1, 5IN-1NH1, 5IN-6NNC6, or 5IN-6NNC7 in a dose-dependent manner for 48 h. Dimethyl sulfoxide (DMSO) was used as the vehicle control. Viable cell numbers were determined by tetrazolium conversion to its formazan dye and absorbance was measured at 490 nm using an automated ELISA plate reader. Each experiment was performed in quadruplicate. IC50 values were determined using CalcuSyn software.

The next test relates to MV4-11 AML cells. Briefly: MTS cell viability, MV4-11 AML cells (FLT3-ITD). The format is cell-based, human. As to conditions: Homo sapiens, 48 h, read-out: IC50 for 50% inhibition of viability. The procedure: as §1
(§2) Compound (1289) inhibits viabilities of MV4-11 and MOLM13 AML cells that harbor an internal tandem duplication (ITD) mutation. MTS assays were performed for cell viability. Human MV4-11 and MOLM13 AML cells (5000/well) were seeded in 96-well plates, incubated overnight at 37° C. in 5% CO2, and exposed to compound (1289) in a dose-dependent manner for 48 h. Dimethyl sulfoxide (DMSO) was used as the vehicle control. Viable cell numbers were determined by tetrazolium conversion to its formazan dye and absorbance was measured at 490 nm using an automated ELISA plate reader. Each experiment was performed in quadruplicate. IC50 values were determined using CalcuSyn software.

The next test deals with MOLM13 AML cells. Description: MTS cell viability, MOLM13 AML cells (FLT3-ITD). Type of test: cell-based, human. Conditions: Homo sapiens, MOLM-13, 48 h, read-out: IC50 for 50% inhibition of viability. The protocol: as §1, §2
In the next test the test system is A549 lung cancer cells. Description: MTS cell viability, A549 lung cancer cells. Type of test: cell-based, human. Conditions: Homo sapiens, 48 h, read-out: IC50 for 50% inhibition of viability. The procedure:
as §1

The subject of test [4] is DU145 prostate cancer cells. Briefly: MTS cell viability, DU145 prostate cancer cells. The format is cell-based, human. As to conditions: Homo sapiens, DU-145, 48 h, read-out: IC50 for 50% inhibition of viability. The procedure:
as §1

In a further test the test system is A2058 melanoma cells. Description: MTS cell viability, A2058 melanoma cells. Type of test: cell-based, human. As to conditions: Homo sapiens, 48 h, read-out: IC50 for 50% inhibition of viability. The protocol:
as §1

A further test addresses FLT3 (Homo sapiens, UniProt P36888). Description: In vitro kinase assay, recombinant FLT3. Type of test: biochemical. Conditions: recombinant FLT3, 33P-ATP, 120 min. The protocol: (§3) The kinase assays were performed with recombinant class III receptor tyrosine kinase family proteins. Briefly, proteins, freshly prepared substrates and ^33P-ATP (specific activity 0.01 μCi/μl final) were mixed in reaction buffer (20 mM HEPES pH 7.5, 10 mM MgCl2, 1 mM EGTA, 0.02% Brij35, 0.02 mg/ml BSA, 0.1 mM Na3VO4, 2 mM DTT) in the presence of DMSO as control or 5IN-1NH1s. The mixtures were reacted for 120 min at room temperature. Samples were transferred onto P81 ion exchange paper and filters were extensively washed with 0.75% phosphoric acid. The radioactivities were monitored. IC50 values were determined using GraphPad Prism software.
as §3, with “Kinase” for “The kinase”, “FLT3, mutated FLT3-ITD and D835I mutant FLT3 kinases.” for “class III receptor tyrosine kinase family proteins.”, “compound (1289).” for “5IN-1NH1s.”

In the next test the test system is STAT5. Briefly: Western blot, phosphorylation of STAT5 in AML cells. Conditions: FLT-ITD mutated AML cells (MV4-11, MOLM13), 4h. Type of test: cell-based, human. The protocol: (§4) Western blot analyses were performed with specific antibodies. Briefly, human MV4-11 and MOLM13 AML cells were treated with compound (1289) in a dose-dependent manner for 4h. Whole-cell lysates (40 ug) were resolved by SDS-PAGE. Primary phospho-specific antibodies to p-Stat5 and […] were diluted in TBS (pH 7.5) with 5% (w/v) BSA and 0.1% (v/v) Tween-20 over night at 4° C. Primary specific antibodies to Stat5 and […] were diluted in PBS (pH 7.5) with 5% (w/v) nonfat milk and 0.1% (v/v) Tween-20 overnight at 4° C. Horseradish peroxidase-conjugated secondary antibodies were incubated in PBS (pH 7.5) with 5% (w/v) nonfat milk and 0.1% (v/v) Tween-20 for 1 h at room temperature. Positive immuno-reactive proteins were detected using the ECL system.
(In general: Immunoblotting shows a protein as a band on a membrane.)

In another test the target is PDGFR α (Homo sapiens, UniProt P16234). Description: In vitro kinase assay, recombinant PDGFR α. As to conditions: 33P-ATP, 120 min. Type of test: biochemical. The protocol: (§5) Compound (1289) inhibits activities of FMS, PDGFR α, PDGFR β and c-KIT in vitro. The kinase assays were performed with recombinant FMS, PDGFR α, PDGFR β and c-KIT proteins. Briefly, proteins, freshly prepared substrates and ^33P-ATP (specific activity 0.01 μCi/μl final) were mixed in reaction buffer (20 mM HEPES pH 7.5, 10 mM MgCl2, 1 mM EGTA, 0.02% Brij35, 0.02 mg/ml BSA, 0.1 mM Na3VO4, 2 mM DTT) in the presence of DMSO as control or compound (1289). The mixtures were reacted for 120 min at room temperature. Samples were transferred onto P81 ion exchange paper and filters were extensively washed with 0.75% phosphoric acid. The radioactivities were monitored.
as §3

In a further test the target is FLT3 (ITD) (Homo sapiens, UniProt P36888). Description: In vitro kinase assay, recombinant FLT3 (ITD). The format is biochemical. As to conditions: 33P-ATP, 120 min. The protocol:
as §3
as §3, with “Kinase” for “The kinase”, “FLT3, mutated FLT3-ITD and D835I mutant FLT3 kinases.” for “class III receptor tyrosine kinase family proteins.”, “compound (1289).” for “5IN-1NH1s.”

The next test concerns the target PDGFR β (Homo sapiens, UniProt P09619). Briefly: In vitro kinase assay, recombinant PDGFR β. Type of test: biochemical. Conditions: 33P-ATP, 120 min. The procedure:
as §5, §3

The next test has as its target FMS (Homo sapiens, UniProt P07333). Description: In vitro kinase assay, recombinant FMS. Conditions: 33P-ATP, 120 min. The format is biochemical. The procedure:
as §5, §3

A further test relates to Erk1/2. Description: Western blot, phosphorylation of Erk1/2 in AML cells. The format is cell-based, human. Conditions: FLT-ITD mutated AML cells (MV4-11, MOLM13), 4h. The protocol:
as §4

The target in a further test is c-KIT (Homo sapiens, UniProt P10721). Briefly: In vitro kinase assay, recombinant c-KIT. Type of test: biochemical. Conditions: 33P-ATP, 120 min. The protocol: as §5, §3
A further test concerns the target FLT3 (D835Y) (Homo sapiens, UniProt P36888, D835Y). Description: In vitro kinase assay, recombinant FLT3 (D835Y). Type of test: biochemical. As to conditions: 33P-ATP, 120 min. The protocol:
as §3
as §3, with “Kinase” for “The kinase”, “FLT3, mutated FLT3-ITD and D835I mutant FLT3 kinases.” for “class III receptor tyrosine kinase family proteins.”, “compound (1289).” for “5IN-1NH1s.”

The test system of another test is MV4-11 AML SQ xenografts. Briefly: MV4-11 AML SQ xenografts in vivo. Also noted: species or system mouse. Conditions: NSG mice, 25 mg/kg orally twice daily for 18 days. The procedure:
Human MV4-11 AML cells (5×10^6) were resuspended in serum-free RPMI1640 medium and subcutaneously injected into the flank of 5-6 weeks old NOD/SCID/IL-2rg(ko) (NSG) female mouse. When palpable tumor sizes reached at approximately 100 mm^3, mice were randomly divided into two groups (vehicle=7, treatment=7). Then, compound (1289) was orally administered at 25 mg/kg with vehicle (10% DMSO+30% SOLUTOL®+60% Saline), twice daily for 18 days. Tumor volumes were calculated by the formula 1/2a×b^2, where a is the long diameter, and b is the short diameter. Tumor volumes correlate with tumor weights. The statistical significance of group differences was analyzed using a Student's t-test with the two-tailed distribution. P values less than 0.05 were considered statistically significant.

pIC50: −log10 of the molar value.

Chain of PDGFR β (P09619 33-1106, species assumed): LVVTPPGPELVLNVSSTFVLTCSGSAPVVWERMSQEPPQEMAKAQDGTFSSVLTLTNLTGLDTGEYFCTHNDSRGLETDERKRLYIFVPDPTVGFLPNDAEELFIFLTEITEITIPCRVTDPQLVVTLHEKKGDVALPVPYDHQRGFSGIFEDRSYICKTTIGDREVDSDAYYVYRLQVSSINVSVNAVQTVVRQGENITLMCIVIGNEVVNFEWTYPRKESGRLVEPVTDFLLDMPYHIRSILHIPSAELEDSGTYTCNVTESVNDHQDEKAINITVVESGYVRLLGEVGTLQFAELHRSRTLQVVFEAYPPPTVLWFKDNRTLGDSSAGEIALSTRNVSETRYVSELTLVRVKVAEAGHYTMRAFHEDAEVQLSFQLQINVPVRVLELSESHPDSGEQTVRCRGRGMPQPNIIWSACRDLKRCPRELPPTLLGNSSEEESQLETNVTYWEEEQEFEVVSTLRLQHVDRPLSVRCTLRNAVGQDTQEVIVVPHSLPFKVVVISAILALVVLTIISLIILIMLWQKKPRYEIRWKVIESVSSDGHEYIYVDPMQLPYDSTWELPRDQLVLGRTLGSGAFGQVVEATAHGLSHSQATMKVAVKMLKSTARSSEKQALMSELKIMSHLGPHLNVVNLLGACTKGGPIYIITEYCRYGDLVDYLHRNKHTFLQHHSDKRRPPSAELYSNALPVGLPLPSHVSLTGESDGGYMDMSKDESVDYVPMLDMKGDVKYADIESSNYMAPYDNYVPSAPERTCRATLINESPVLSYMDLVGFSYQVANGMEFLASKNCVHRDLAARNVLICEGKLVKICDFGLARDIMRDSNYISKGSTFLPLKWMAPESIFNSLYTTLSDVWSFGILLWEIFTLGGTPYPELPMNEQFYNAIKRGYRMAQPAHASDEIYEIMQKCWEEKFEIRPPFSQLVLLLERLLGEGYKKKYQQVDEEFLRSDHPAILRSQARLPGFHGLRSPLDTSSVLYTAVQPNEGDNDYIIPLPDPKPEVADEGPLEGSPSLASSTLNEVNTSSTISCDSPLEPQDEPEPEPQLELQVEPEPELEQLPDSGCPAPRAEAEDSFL
Chain of PDGFR α (P16234 24-1089, species assumed): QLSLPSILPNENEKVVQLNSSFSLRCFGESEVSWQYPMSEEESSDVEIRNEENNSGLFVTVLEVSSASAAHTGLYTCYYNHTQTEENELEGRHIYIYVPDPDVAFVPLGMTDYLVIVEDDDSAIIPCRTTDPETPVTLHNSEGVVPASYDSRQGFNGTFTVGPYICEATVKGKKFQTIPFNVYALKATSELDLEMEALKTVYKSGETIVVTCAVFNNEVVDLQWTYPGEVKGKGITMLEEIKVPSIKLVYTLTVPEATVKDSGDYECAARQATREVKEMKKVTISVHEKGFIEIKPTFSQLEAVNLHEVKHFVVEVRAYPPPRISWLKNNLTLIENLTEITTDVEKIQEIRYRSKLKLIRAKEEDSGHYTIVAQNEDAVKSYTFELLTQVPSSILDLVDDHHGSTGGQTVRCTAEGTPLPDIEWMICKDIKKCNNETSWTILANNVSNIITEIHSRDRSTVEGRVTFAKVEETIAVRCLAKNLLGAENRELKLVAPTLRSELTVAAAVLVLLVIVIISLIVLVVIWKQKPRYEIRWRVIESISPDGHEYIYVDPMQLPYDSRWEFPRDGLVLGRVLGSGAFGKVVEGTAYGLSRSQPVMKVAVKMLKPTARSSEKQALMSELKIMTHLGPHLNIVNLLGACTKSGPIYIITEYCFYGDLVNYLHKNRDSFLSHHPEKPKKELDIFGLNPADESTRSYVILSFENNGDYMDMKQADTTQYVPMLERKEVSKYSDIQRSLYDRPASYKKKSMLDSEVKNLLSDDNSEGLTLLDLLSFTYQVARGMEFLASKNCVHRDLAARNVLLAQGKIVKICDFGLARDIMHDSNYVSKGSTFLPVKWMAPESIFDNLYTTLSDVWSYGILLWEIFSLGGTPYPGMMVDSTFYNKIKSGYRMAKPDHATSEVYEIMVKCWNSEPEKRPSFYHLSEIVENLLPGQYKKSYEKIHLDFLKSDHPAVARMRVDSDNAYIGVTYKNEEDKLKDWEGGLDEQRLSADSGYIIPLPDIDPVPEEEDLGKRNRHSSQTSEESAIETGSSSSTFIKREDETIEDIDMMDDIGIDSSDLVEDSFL
Chain of FMS (P07333 20-972, species assumed): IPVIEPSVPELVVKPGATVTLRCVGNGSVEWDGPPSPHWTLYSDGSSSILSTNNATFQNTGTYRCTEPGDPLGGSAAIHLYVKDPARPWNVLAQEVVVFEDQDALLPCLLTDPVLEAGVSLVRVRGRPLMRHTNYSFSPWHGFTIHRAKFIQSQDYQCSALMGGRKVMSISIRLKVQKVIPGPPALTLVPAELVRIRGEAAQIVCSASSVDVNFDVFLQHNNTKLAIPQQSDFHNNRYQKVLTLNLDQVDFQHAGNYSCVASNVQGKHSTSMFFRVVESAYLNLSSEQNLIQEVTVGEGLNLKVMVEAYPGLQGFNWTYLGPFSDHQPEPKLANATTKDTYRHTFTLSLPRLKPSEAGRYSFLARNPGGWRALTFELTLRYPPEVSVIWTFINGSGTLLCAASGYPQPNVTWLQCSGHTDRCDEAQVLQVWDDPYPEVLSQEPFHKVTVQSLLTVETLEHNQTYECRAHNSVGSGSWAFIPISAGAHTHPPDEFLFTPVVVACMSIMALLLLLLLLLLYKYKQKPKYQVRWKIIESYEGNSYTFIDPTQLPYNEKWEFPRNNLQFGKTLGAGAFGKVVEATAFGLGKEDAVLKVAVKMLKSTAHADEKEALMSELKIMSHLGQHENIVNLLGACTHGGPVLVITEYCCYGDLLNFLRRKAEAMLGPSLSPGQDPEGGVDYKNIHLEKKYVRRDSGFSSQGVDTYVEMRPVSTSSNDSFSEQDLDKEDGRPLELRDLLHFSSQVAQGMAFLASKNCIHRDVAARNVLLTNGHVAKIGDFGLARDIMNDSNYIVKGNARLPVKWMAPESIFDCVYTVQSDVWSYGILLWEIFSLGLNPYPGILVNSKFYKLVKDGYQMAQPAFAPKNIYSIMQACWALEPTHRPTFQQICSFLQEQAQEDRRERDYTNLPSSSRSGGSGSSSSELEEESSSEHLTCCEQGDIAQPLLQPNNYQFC
Chain of c-KIT (P10721 26-976): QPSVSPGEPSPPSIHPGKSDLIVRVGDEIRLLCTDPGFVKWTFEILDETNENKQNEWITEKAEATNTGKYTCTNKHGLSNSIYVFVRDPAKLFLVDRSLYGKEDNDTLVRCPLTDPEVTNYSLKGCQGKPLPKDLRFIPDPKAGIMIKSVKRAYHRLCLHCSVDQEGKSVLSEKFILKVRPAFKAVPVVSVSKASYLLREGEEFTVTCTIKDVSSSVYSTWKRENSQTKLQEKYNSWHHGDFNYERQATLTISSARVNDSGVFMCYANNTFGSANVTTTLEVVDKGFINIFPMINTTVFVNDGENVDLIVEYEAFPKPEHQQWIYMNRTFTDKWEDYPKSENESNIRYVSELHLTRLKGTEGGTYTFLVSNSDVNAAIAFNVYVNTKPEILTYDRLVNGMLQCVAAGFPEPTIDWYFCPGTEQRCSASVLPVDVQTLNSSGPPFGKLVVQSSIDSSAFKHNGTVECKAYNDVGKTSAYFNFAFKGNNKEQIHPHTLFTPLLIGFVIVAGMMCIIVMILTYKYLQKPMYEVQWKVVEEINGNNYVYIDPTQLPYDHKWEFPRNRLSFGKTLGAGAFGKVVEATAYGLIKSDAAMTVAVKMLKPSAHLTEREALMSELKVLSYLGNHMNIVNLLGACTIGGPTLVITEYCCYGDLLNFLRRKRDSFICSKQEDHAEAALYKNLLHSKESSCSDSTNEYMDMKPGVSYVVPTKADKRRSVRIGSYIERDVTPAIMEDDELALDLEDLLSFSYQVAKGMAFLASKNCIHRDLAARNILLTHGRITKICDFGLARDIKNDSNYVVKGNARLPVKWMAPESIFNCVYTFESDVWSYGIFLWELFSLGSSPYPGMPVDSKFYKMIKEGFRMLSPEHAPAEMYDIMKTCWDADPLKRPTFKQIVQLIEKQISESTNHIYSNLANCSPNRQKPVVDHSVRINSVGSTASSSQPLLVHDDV

With `CNCCO/N=C1/C(=C2/C(=O)Nc3ccc(Br)cc32)Nc2ccccc21` [5IN-1NH1], the pIC50 (as a rule, the IC50 on a negative log10 scale, so that one unit is a factor of ten) in the test on KCL22 CML cells is 7.24; in [1] it was 6.76; in [2], 7.31; in test [3] (Homo sapiens, KCL-22, T315I ABL1 mutant KCL22 CML cells, MTS, 48 h, read-out: IC50 for 50% inhibition of viability), 7.28; with MV4-11 AML cells, 8.11; in the test on MOLM13 AML cells, 7.95. In addition, the pIC50 in the test on A549 lung cancer cells was 7.18; in [4], 7.45; with A2058 melanoma cells it was 7.11. For the same compound, in [3] (more potent than compound (1289)), the “potency against T315I KCL22 CML cells relative to compound (1289)” value is recorded as “around 10 fold”.

Consider `O=C1Nc2ccc(Br)cc2C1=C1Nc2ccccc2C1=NOCCN1CCNCC1` [Compound (1289)], for which the pIC50 was 9.17 on FLT3; 7.87 at PDGFR α; 8.74 in the test on MV4-11 AML cells; 9.25 on FLT3 (ITD); 8.92 on PDGFR β; 8.64 in the test with MOLM13 AML cells. The negative logarithm of the IC50 (pIC50) on FMS was 8.12; on c-KIT it was 7.32; on FLT3 (D835Y) it was over 9.30. Moreover, the “phosphorylation of STAT5” value in the test on STAT5 is “blocked phosphorylation”. The “phosphorylation of Erk1/2” value in the test on Erk1/2 is recorded as “blocked phosphorylation”. Moreover, the “efficacy in vivo on MV4-11 AML SQ xenografts” value in the test with MV4-11 AML SQ xenografts is recorded as “shows efficacy in vivo”.
